From patent US10457710B2, “Antimicrobial peptides, their variants and uses” (priority 2015, dated 2019)
Where a SMILES comes first, the peptide text is derived from it. [ ]: non-standard residue; d: D form.

What was measured:
Type in all cases: cell-based
C. glabrata = assay: MIC, clinical yeast strains
Outline: (§1)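 Overnight MH agar colonies were suspended in MH broth to 5.0×10^5 cfu/ml, mixed with serial peptide dilutions (0.125–128 μg/ml) and incubated at 37° C for 20 to 24 hours. Yeast MICs were run the same way in potato dextrose broth, and wells were scored visually.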

Candida albicans = assay: MIC, clinical yeast strains
Outline: as §1

C. parapsilosis = assay: MIC, clinical yeast strains
Outline: as §1

C. quillermondiae = assay: MIC, clinical yeast strains; parameters: Minimum inhibitory concentration: unit: μg/ml; settings: C. quillermondiae clinical yeast strain 1
Outline: as §1

[1] = system: clinical strains of E. coli; assay: MIC, microdilution, clinical strains; settings: microdilution, Muller Hinton broth-cation adjusted, 0.02% BSA, 0.2% acetic acid
Outline: as §1

[2] = system: clinical strains of S. pneumoniae; assay: MIC, microdilution, clinical strains; settings: 0.02% BSA, 0.2% acetic acid
Outline: as §1

[3] = system: clinical strains of K. pneumoniae; assay: MIC, microdilution, clinical strains; settings: 0.02% BSA, 0.2% acetic acid
Outline: as §1

[4] = system: clinical strains of Serratia marcescens; assay: MIC, microdilution, clinical strains; settings: 0.02% BSA, 0.2% acetic acid
Outline: as §1

[5] = system: clinical strains of Proteus mirabilis; assay: MIC, microdilution, clinical strains; settings: 0.02% BSA, 0.2% acetic acid
Outline: as §1

[6] = system: clinical strains of P. aeruginosa; assay: MIC, microdilution, clinical strains; settings: 0.02% BSA, 0.2% acetic acid
Outline: as §1

[7] = system: clinical strains of S. aureus; assay: MIC, microdilution, clinical strains; settings: 0.02% BSA, 0.2% acetic acid
Outline: as §1

[8] = system: clinical strains of E. cloacae; assay: MIC, microdilution, clinical strains; settings: 0.02% BSA, 0.2% acetic acid
Outline: as §1

[9] = system: clinical strains of Acinetobacter baumannii; assay: MIC, microdilution, clinical strains; parameters: unit: μg/ml; settings: 0.02% BSA, 0.2% acetic acid
Outline: as §1

[10] = system: clinical strains of A. johnsonii; assay: MIC, microdilution, clinical strains; parameters: unit: μg/ml; settings: Acinetobacter johnsonii strain 1, Muller Hinton broth-cation adjusted, 0.02% BSA, 0.2% acetic acid
Outline: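 Visual growth inhibition defined the MIC in a microdilution assay where fungal strains were cultured in potato dextrose broth instead of MH broth. Cell density was set to 5.0×10^5 cfu/ml, and incubation lasted 20–24 h at 37° C across a 0.125–128 μg/ml series.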

CC(C)C[C@@H](NC(=O)[C@H](N)CCCNC(=N)N)C(=O)N[C@H](CCCCN)C(=O)N[C@H](Cc1c[nH]c2ccccc12)C(=O)N[C@H](Cc1ccccc1)C(=O)N[C@H](CC(C)C)C(=O)N[C@H](CC(C)C)C(=O)N[C@H](Cc1ccccc1)C(=O)N[C@H](CCCNC(=N)N)C(=O)N[C@H](CCCCN)C(=O)N[C@H](CCCNC(=N)N)C(=O)O [Chain308D] (H-[dR][dL][dK][dW][dF][dL][dL][dF][dR][dK][dR]-OH)
Minimum inhibitory concentration (C. glabrata; C. glabrata clinical yeast strain 1): 16 | Minimum inhibitory concentration (C. glabrata; C. glabrata clinical yeast strain 2): 16 | Minimum inhibitory concentration (C. glabrata; C. glabrata clinical yeast strain 3): 16 | Minimum inhibitory concentration (C. glabrata; C. glabrata clinical yeast strain 4): 16 | Minimum inhibitory concentration (Candida albicans; Candida albicans clinical yeast strain 1): 16 | Minimum inhibitory concentration (Candida albicans; Candida albicans clinical yeast strain 2): 16 | Minimum inhibitory concentration (Candida albicans; Candida albicans clinical yeast strain 3): 16 | Minimum inhibitory concentration (Candida albicans; Candida albicans clinical yeast strain 4): 16 | Minimum inhibitory concentration (Candida albicans; Candida albicans clinical yeast strain 5): 16 | Minimum inhibitory concentration (C. parapsilosis; C. parapsilosis clinical yeast strain 1): 8 | Minimum inhibitory concentration (C. parapsilosis; C. parapsilosis clinical yeast strain 2): 8 | Minimum inhibitory concentration (C. parapsilosis; C. parapsilosis clinical yeast strain 3): 8 | Minimum inhibitory concentration (C. parapsilosis; C. parapsilosis clinical yeast strain 4): 4 | Minimum inhibitory concentration (C. quillermondiae): 4 | Minimum inhibitory concentration ([1]; Escherichia coli strain 1): 1 | Minimum inhibitory concentration ([1]; Escherichia coli strain 2): 0.5 | Minimum inhibitory concentration ([1]; Escherichia coli strain 3): 1 | Minimum inhibitory concentration ([1]; Escherichia coli strain 4): 1 | Minimum inhibitory concentration ([1]; Escherichia coli strain 5): 1 | Minimum inhibitory concentration ([2]; Streptococcus pneumoniae strain 1, Muller Hinton broth-cation adjusted): 8 | Minimum inhibitory concentration ([2]; Streptococcus pneumoniae strain 2, Muller Hinton broth-cation adjusted): 4 | Minimum inhibitory concentration ([2]; Streptococcus pneumoniae strain 3, Muller Hinton broth-cation adjusted): 8 | Minimum inhibitory concentration ([2]; Streptococcus pneumoniae strain 4, Muller Hinton broth-cation adjusted): 2 | Minimum inhibitory concentration ([2]; Streptococcus pneumoniae strain 5, Muller Hinton broth-cation adjusted): 4 | Minimum inhibitory concentration ([3]; Klebsiella pneumoniae strain 1, Muller Hinton broth-cation adjusted): 4 | Minimum inhibitory concentration ([3]; Klebsiella pneumoniae strain 2, Muller Hinton broth-cation adjusted): 4 | Minimum inhibitory concentration ([3]; Klebsiella pneumoniae strain 3, Muller Hinton broth-cation adjusted): 4 | Minimum inhibitory concentration ([3]; Klebsiella pneumoniae strain 4, Muller Hinton broth-cation adjusted): 4 | Minimum inhibitory concentration ([3]; Klebsiella pneumoniae strain 5, Muller Hinton broth-cation adjusted): 4 | Minimum inhibitory concentration ([4]; Serratia marcescens strain 1, Muller Hinton broth-cation adjusted): 128 | Minimum inhibitory concentration ([4]; Serratia marcescens strain 2, Muller Hinton broth-cation adjusted): 128 | Minimum inhibitory concentration ([4]; Serratia marcescens strain 3, Muller Hinton broth-cation adjusted): 64 | Minimum inhibitory concentration ([4]; Serratia marcescens strain 4, Muller Hinton broth-cation adjusted): >128 | Minimum inhibitory concentration ([4]; Serratia marcescens strain 5, Muller Hinton broth-cation adjusted): 128 | Minimum inhibitory concentration ([5]; Proteus mirabilis strain 1, Muller Hinton broth-cation adjusted): >128 | Minimum inhibitory concentration ([5]; Proteus mirabilis strain 2, Muller Hinton broth-cation adjusted): 32 | Minimum inhibitory concentration ([5]; Proteus mirabilis strain 3, Muller Hinton broth-cation adjusted): 128 | Minimum inhibitory concentration ([5]; Proteus mirabilis strain 4, Muller Hinton broth-cation adjusted): >128 | Minimum inhibitory concentration ([5]; Proteus mirabilis strain 5, Muller Hinton broth-cation adjusted): >128 | Minimum inhibitory concentration ([6]; Pseudomonas aeruginosa strain 1, Muller Hinton broth-cation adjusted): 8 | Minimum inhibitory concentration ([6]; Pseudomonas aeruginosa strain 2, Muller Hinton broth-cation adjusted): 8 | Minimum inhibitory concentration ([6]; Pseudomonas aeruginosa strain 3, Muller Hinton broth-cation adjusted): 4 | Minimum inhibitory concentration ([6]; Pseudomonas aeruginosa strain 4, Muller Hinton broth-cation adjusted): 4 | Minimum inhibitory concentration ([6]; Pseudomonas aeruginosa strain 5, Muller Hinton broth-cation adjusted): 4 | Minimum inhibitory concentration ([7]; Staphylococcus aureus strain 1, Muller Hinton broth-cation adjusted): 1 | Minimum inhibitory concentration ([7]; Staphylococcus aureus strain 2, Muller Hinton broth-cation adjusted): 2 | Minimum inhibitory concentration ([7]; Staphylococcus aureus strain 3, Muller Hinton broth-cation adjusted): 1 | Minimum inhibitory concentration ([7]; Staphylococcus aureus strain 4, Muller Hinton broth-cation adjusted): 2 | Minimum inhibitory concentration ([7]; Staphylococcus aureus strain 5, Muller Hinton broth-cation adjusted): 2 | Minimum inhibitory concentration ([8]; Enterobacter cloacae strain 1, Muller Hinton broth-cation adjusted): 2 | Minimum inhibitory concentration ([8]; Enterobacter cloacae strain 2, Muller Hinton broth-cation adjusted): 2 | Minimum inhibitory concentration ([8]; Enterobacter cloacae strain 3, Muller Hinton broth-cation adjusted): 2 | Minimum inhibitory concentration ([8]; Enterobacter cloacae strain 4, Muller Hinton broth-cation adjusted): 2 | Minimum inhibitory concentration ([8]; Enterobacter cloacae strain 5, Muller Hinton broth-cation adjusted): 2 | Minimum inhibitory concentration ([9]; Acinetobacter baumannii strain 1, Muller Hinton broth-cation adjusted): 4 | Minimum inhibitory concentration ([9]; Acinetobacter baumannii strain 2, Muller Hinton broth-cation adjusted): 4 | Minimum inhibitory concentration ([9]; Acinetobacter baumannii strain 3, Muller Hinton broth-cation adjusted): 4 | Minimum inhibitory concentration ([9]; Acinetobacter baumannii strain 4, Muller Hinton broth-cation adjusted): 2 | Minimum inhibitory concentration ([9]; Acinetobacter baumannii strain 5, Muller Hinton broth-cation adjusted): 2 | Minimum inhibitory concentration [10]: 4
